Test results reported in patent US11331299B2, “Medicinal use of serrulatane diterpenes” (The University of Sydney, priority 2016, dated 2022).
pEC50, pIC50: −log10 of the molar value. Read-outs that look alike come from different tables or passages of the source.

Tested on: 280 human cancer cell lines
Experiment: OncoPanel cell proliferation assay (10-day)
Format: cell-based
Conditions: for pEC50: read-out: Cell Count EC50; for pIC50: read-out: Cell Count IC50
[1] = Homo sapiens, 22Rv1, 22Rv1, Prostate
[2] = Homo sapiens, 786-0, 786-O, Kidney
[3] = Homo sapiens, A7, Skin (Melanoma)
[4] = Homo sapiens, A101D, Skin (Melanoma)
[5] = Homo sapiens, A 172, A172, CNS - Glioma
[6] = Homo sapiens, A253, A-253, Head and Neck
[7] = Homo sapiens, A388, Head and Neck
[8] = Homo sapiens, A498, A498, Kidney
[9] = Homo sapiens, A549, A549, Lung - NSCLC
[10] = Homo sapiens, A673, A-673, Soft Tissue - Sarcoma
[11] = Homo sapiens, A704, A-704, Kidney
[12] = Homo sapiens, A-375, A375, Skin (Melanoma)
[13] = Homo sapiens, A-427, A427, Lung - NSCLC
[14] = Homo sapiens, A-431, A431, Head and Neck
[15] = Homo sapiens, AN3-CA, AN3 CA, Female GU - Uterus
[16] = Homo sapiens, ARH-77, ARH-77, Myeloma
[17] = Homo sapiens, ASPC1, AsPC-1, Pancreas
[18] = Homo sapiens, AU565, AU565, Breast
[19] = Homo sapiens, BCP-1, BCP-1, Lymphoma
[20] = Homo sapiens, BE(2)-C, BE(2)C, CNS - Neuroblastoma
[21] = Homo sapiens, BFTC-905, BFTC-905, Bladder
[22] = Homo sapiens, BHT-101, BHT-101, Endocrine - Thyroid
[23] = Homo sapiens, BM-1604, BM-1604, Prostate
[24] = Homo sapiens, BPH-1, BPH1, Prostate
[25] = Homo sapiens, BT-20, BT20, Breast

For `CC(C)=CCC[C@H](C)[C@@H]1CC[C@@H](C)c2c1cc(C)c(O)c2O` [Compound 4, 7,8-dihydroxyserrulat-14-ene], the “Number of cell types, GI Activity Potent” value (GI50 range 0.03-0.099 μM, of 280 cell types) was 0, the “Number of cell types, GI Activity moderately potent” value (GI50 range 0.1-0.99 μM, of 280 cell types) was 1 and the “Number of cell types, GI Activity Strong” value (GI50 range 1-2.99 μM, of 280 cell types) was 11. For the same compound, the “Number of cell types, GI Activity moderately strong” value (GI50 range 3-9.99 μM, of 280 cell types) was 125, the “Number of cell types, GI Activity weak” value (GI50 range 10-30.00 μM, of 280 cell types) was 130 and the “Number of cell types, GI Activity very weak” value (GI50 range >30 μM, of 280 cell types) was 13. It also gave a GI50 (Homo sapiens, 12 cell lines with moderately potent to strong activity, read-out: GI50) of 0.68 to 2.92 µM, a pEC50 [1] of 5.04 and a GI50 (Homo sapiens, 22Rv1, 22Rv1, Prostate, read-out: Cell Count GI50) of 9 µM. The pIC50 [1] was 5.04, the pEC50 (Homo sapiens, 647-V, Bladder) was 5.22 and the GI50 (Homo sapiens, 647-V, Bladder, read-out: Cell Count GI50) was 5.99 µM. It also gave a pIC50 (Homo sapiens, 647-V, Bladder) of 5.22, a pEC50 (Homo sapiens, 769-P, Kidney) of 5.43 and a GI50 (Homo sapiens, 769-P, Kidney, read-out: Cell Count GI50) of 3.71 µM. For the same compound, the pIC50 (Homo sapiens, 769-P, Kidney) was 5.43, the pEC50 [2] was 4.85 and the GI50 (Homo sapiens, 786-0, 786-O, Kidney, read-out: Cell Count GI50) was 13.9 µM. For the same compound, the pIC50 [2] was 4.85, the pEC50 (Homo sapiens, 5637, Bladder) was 4.82 and the GI50 (Homo sapiens, 5637, Bladder, read-out: Cell Count GI50) was 15.1 µM. The pIC50 (Homo sapiens, 5637, Bladder) was 4.82, the pEC50 [3] was 4.98 and the GI50 (Homo sapiens, A7, Skin (Melanoma), read-out: Cell Count GI50) was 10.5 µM. For the same compound, the pIC50 [3] was 4.98, the pEC50 [4] was < 4.52 and the GI50 (Homo sapiens, A101D, Skin (Melanoma), read-out: Cell Count GI50) was > 30 µM. For the same compound, the pIC50 [4] was < 4.52, the pEC50 [5] was 5.09 and the GI50 (Homo sapiens, A 172, A172, CNS - Glioma, read-out: Cell Count GI50) was 8.03 µM. For the same compound, the pIC50 [5] was 5.09, the pEC50 [6] was 4.74 and the GI50 (Homo sapiens, A253, A-253, Head and Neck, read-out: Cell Count GI50) was 18.1 µM. For the same compound, the pIC50 [6] was 4.74, the pEC50 [7] was 5.12 and the GI50 (Homo sapiens, A388, Head and Neck, read-out: Cell Count GI50) was 7.59 µM. For the same compound, the pIC50 [7] was 5.12, the pEC50 [8] was 4.91 and the GI50 (Homo sapiens, A498, A498, Kidney, read-out: Cell Count GI50) was 12.2 µM. For the same compound, the pIC50 [8] was 4.91, the pEC50 [9] was 4.96 and the GI50 (Homo sapiens, A549, A549, Lung - NSCLC, read-out: Cell Count GI50) was 10.8 µM. For the same compound, the pIC50 [9] was 4.96, the pEC50 [10] was 5.54 and the GI50 (Homo sapiens, A673, A-673, Soft Tissue - Sarcoma, read-out: Cell Count GI50) was 2.87 µM. It also gave a pIC50 [10] of 5.54, a pEC50 [11] of 5.24 and a GI50 (Homo sapiens, A704, A-704, Kidney, read-out: Cell Count GI50) of 5.41 µM. For the same compound, the pIC50 [11] was 5.24, the pEC50 [12] was 5.24 and the GI50 (Homo sapiens, A-375, A375, Skin (Melanoma), read-out: Cell Count GI50) was 5.74 µM. For the same compound, the pIC50 [12] was 5.24, the pEC50 [13] was 5.00 and the GI50 (Homo sapiens, A-427, A427, Lung - NSCLC, read-out: Cell Count GI50) was 9.98 µM. It also gave a pIC50 [13] of 5.00, a pEC50 [14] of 4.61 and a GI50 (Homo sapiens, A-431, A431, Head and Neck, read-out: Cell Count GI50) of 24.8 µM. The pIC50 [14] was 4.61, the pEC50 (Homo sapiens, ACHN, Kidney) was 5.02 and the GI50 (Homo sapiens, ACHN, Kidney, read-out: Cell Count GI50) was 9.47 µM. It also gave a pIC50 (Homo sapiens, ACHN, Kidney) of 5.02, a pEC50 (Homo sapiens, AGS, Stomach) of 5.28 and a GI50 (Homo sapiens, AGS, Stomach, read-out: Cell Count GI50) of 5.24 µM. The pIC50 (Homo sapiens, AGS, Stomach) was 5.28, the pEC50 [15] was 5.02 and the GI50 (Homo sapiens, AN3-CA, AN3 CA, Female GU - Uterus, read-out: Cell Count GI50) was 9.43 µM. It also gave a pIC50 [15] of 5.02, a pEC50 [16] of 4.87 and a GI50 (Homo sapiens, ARH-77, ARH-77, Myeloma, read-out: Cell Count GI50) of 13.4 µM. The pIC50 [16] was 4.87, the pEC50 [17] was 4.83 and the GI50 (Homo sapiens, ASPC1, AsPC-1, Pancreas, read-out: Cell Count GI50) was 14.5 µM. The pIC50 [17] was 4.83, the pEC50 [18] was 5.00 and the GI50 (Homo sapiens, AU565, AU565, Breast, read-out: Cell Count GI50) was 10 µM. The pIC50 [18] was 5.00, the pEC50 (Homo sapiens, BC-1, Lymphoma) was 5.38 and the GI50 (Homo sapiens, BC-1, Lymphoma, read-out: Cell Count GI50) was 4.16 µM. The pIC50 (Homo sapiens, BC-1, Lymphoma) was 5.38, the pEC50 [19] was 5.05 and the GI50 (Homo sapiens, BCP-1, BCP-1, Lymphoma, read-out: Cell Count GI50) was 8.75 µM. For the same compound, the pIC50 [19] was 5.05, the pEC50 [20] was 4.88 and the GI50 (Homo sapiens, BE(2)-C, BE(2)C, CNS - Neuroblastoma, read-out: Cell Count GI50) was 13 µM. It also gave a pIC50 [20] of 4.88, a pEC50 [21] of 5.01 and a GI50 (Homo sapiens, BFTC-905, BFTC-905, Bladder, read-out: Cell Count GI50) of 9.68 µM. The pIC50 [21] was 5.01, the pEC50 [22] was 5.17 and the GI50 (Homo sapiens, BHT-101, BHT-101, Endocrine - Thyroid, read-out: Cell Count GI50) was 6.77 µM. The pIC50 [22] was 5.17, the pEC50 [23] was < 4.52 and the GI50 (Homo sapiens, BM-1604, BM-1604, Prostate, read-out: Cell Count GI50) was > 30 µM. For the same compound, the pIC50 [23] was < 4.52, the pEC50 [24] was 4.76 and the GI50 (Homo sapiens, BPH-1, BPH1, Prostate, read-out: Cell Count GI50) was 17.3 µM. The pIC50 [24] was 4.76, the pEC50 [25] was 4.85 and the GI50 (Homo sapiens, BT-20, BT20, Breast, read-out: Cell Count GI50) was 13.9 µM. The pIC50 [25] was 4.84 and the pEC50 (Homo sapiens, BT-474, BT474, Breast) was 4.59.
